# Assay results reported in patent US8791131B2, “Imidazo[1,5]naphthyridine compounds, their pharmaceutical use and compositions” (Pfizer Inc., priority 2008, dated 2014).
# Columns and labels:
# [1] = test system: PI3-K (phosphorylation of AKT at serine 473) in BT20 cells; assay: PI3-Kα cellular assay (phospho-AKT Ser473 ELISA in BT20 cells); settings: Homo sapiens, BT-20, 1 h, read-out: S473 pAKT 10% FBS IC50 (μM);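 further: lysates read by ELISA with TMB colour at 450 nm, cells given 0.5% DMSO vehicle serve as positive control and cell-free wells as negative control, duplicate wells per concentration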
# PI3-Kα = PI3-Kα (Mus musculus (Mouse), UniProt P42337); assay: PI3-Kα biochemical assay (in vitro kinase assay, fluorescence polarization); settings: Ki calculated from IC50, [ATP]=30 uM, Km=25 uM;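 further: Insect-cell-expressed mouse p110/p85 complex converting PI(4,5)P2, product PI(3,4,5)P3 detected by displacing TAMRA-tagged PI(3,4,5)P3 from Grip1 PH domain, lower polarization means more product, room temperature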
# Chain of PI3-Kα (P42337 whole entry, the tested form may be a part): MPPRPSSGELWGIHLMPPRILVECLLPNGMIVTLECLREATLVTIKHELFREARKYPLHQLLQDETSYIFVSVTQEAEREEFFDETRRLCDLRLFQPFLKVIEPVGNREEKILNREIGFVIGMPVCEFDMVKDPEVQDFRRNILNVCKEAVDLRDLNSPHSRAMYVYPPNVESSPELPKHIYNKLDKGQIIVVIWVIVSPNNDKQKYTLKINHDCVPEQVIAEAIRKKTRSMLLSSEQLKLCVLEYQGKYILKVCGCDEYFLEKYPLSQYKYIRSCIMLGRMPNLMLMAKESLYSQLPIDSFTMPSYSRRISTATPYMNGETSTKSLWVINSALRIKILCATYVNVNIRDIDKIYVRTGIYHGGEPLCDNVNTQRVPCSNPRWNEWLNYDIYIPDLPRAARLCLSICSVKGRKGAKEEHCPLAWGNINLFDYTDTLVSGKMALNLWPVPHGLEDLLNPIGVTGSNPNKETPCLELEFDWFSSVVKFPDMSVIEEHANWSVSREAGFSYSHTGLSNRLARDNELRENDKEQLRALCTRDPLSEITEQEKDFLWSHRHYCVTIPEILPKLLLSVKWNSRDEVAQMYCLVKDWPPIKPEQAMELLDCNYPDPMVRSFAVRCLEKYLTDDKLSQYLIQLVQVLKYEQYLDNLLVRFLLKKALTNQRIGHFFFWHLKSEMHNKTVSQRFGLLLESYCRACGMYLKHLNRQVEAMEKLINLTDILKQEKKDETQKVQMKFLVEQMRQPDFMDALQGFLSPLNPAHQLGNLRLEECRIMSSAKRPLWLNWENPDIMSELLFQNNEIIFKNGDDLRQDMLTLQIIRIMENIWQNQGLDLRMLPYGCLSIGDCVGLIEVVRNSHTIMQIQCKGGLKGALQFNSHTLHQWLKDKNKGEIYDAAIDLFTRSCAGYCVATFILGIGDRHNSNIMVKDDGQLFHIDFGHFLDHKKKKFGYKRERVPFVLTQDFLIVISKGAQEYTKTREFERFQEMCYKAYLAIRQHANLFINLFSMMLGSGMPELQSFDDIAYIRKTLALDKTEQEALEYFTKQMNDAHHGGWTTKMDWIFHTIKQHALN
# Chain of PI3-Kα (P26450 whole entry partner, the tested form may be a part): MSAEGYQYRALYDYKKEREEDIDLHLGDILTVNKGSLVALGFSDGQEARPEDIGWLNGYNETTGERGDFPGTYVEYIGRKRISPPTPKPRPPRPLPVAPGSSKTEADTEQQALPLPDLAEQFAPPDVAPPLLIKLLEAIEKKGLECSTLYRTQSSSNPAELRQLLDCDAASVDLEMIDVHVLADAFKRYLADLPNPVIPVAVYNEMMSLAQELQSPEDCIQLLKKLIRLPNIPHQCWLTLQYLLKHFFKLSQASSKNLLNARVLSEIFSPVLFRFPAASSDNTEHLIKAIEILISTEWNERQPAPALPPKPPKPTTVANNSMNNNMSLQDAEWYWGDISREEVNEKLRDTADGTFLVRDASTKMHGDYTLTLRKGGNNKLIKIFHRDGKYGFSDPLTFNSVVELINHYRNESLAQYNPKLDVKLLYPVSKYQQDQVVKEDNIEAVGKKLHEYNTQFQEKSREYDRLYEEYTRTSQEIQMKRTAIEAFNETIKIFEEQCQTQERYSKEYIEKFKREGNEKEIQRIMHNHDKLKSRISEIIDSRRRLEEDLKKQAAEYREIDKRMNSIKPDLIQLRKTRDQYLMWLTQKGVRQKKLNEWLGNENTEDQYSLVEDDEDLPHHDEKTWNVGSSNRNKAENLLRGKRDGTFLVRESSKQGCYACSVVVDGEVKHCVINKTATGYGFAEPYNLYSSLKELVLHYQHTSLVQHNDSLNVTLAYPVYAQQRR
# mTOR = mTOR (Homo sapiens (Human), UniProt P42345)
# Chain of mTOR (P42345 2156-2469): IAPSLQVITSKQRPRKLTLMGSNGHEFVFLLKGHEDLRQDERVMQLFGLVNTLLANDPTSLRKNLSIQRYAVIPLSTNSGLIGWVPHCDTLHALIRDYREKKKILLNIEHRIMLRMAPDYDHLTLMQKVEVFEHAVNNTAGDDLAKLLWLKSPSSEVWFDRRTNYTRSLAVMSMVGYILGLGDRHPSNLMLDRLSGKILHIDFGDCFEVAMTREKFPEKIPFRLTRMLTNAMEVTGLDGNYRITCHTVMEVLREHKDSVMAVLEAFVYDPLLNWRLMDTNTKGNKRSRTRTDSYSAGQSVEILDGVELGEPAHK
SMILES,IC50 [1] [µM],PI3Ka Ki (PI3-Kα) [nM],Ki (mTOR) [nM]
"COc1ncc(-c2ccc3ncc4c(c3n2)n(C2CCN(C(=O)CN)CC2)c(=O)n4C)cn1 [Compound 184, 1-(1-glycylpiperidin-4-yl)-8-(2-methoxypyrimidin-5-yl)-3-methyl-1,3-dihydro-2H-imidazo[4,5-c][1,5]naphthyridin-2-one]",0.184,3.93,13.3
"COc1ncc(-c2ccc3ncc4c(c3n2)n(C2CCN(CCO)CC2)c(=O)n4C)cn1 [Compound 185, 1-[1-(2-hydroxyethyl)piperidin-4-yl]-8-(2-methoxypyrimidin-5-yl)-3-methyl-1,3-dihydro-2H-imidazo[4,5-c][1,5]naphthyridin-2-one]",0.124,11.9,25.2
"COc1ncc(-c2ccc3ncc4c(c3n2)n(C2CCN(C(C)=O)CC2)c(=O)n4C)cn1 [Compound 187, 1-(1-acetylpiperidin-4-yl)-8-(2-methoxypyrimidin-5-yl)-3-methyl-1,3-dihydro-2H-imidazo[4,5-c][1,5]naphthyridin-2-one]",0.0346,3.87,3.74
"COc1ncc(-c2ccc3ncc4c(c3n2)n(C2CCNCC2)c(=O)n4C)cn1 [Compound 188, 8-(2-methoxypyrimidin-5-yl)-3-methyl-1-piperidin-4-yl-1,3-dihydro-2H-imidazo[4,5-c][1,5]naphthyridin-2-one]",0.333,8.15,50.4
"CN(C)c1ccc(-c2ccc3ncc4c(c3n2)n(C2CCNCC2)c(=O)n4C)cn1 [Compound 191, 8-[6-(dimethylamino)pyridin-3-yl]-3-methyl-1-piperidin-4-yl-1,3-dihydro-2H-imidazo[4,5-c][1,5]naphthyridin-2-one]",0.0246,0.5,8.41
"N[C@H]1CC[C@H](n2c(=O)[nH]c3cnc4ccc(-c5cnc6ccccc6c5)nc4c32)CC1 [Compound 192, 1-(trans-4-aminocyclohexyl)-8-quinolin-3-yl-1,3-dihydro-2H-imidazo[4,5-c][1,5]naphthyridin-2-one]",0.402,2.21,3.33
"CC(=O)N1CCC(n2c(=O)n(C)c3cnc4ccc(-c5ccc(N(C)C)nc5)nc4c32)CC1 [Compound 195, 1-(1-acetylpiperidin-4-yl)-8-[6-(dimethylamino)pyridin-3-yl]-3-methyl-1,3-dihydro-2H-imidazo[4,5-c][1,5]naphthyridin-2-one]",0.0172,0.391,1.72
"CNC(=O)N1CCC(n2c(=O)n(C)c3cnc4ccc(-c5ccc(N(C)C)nc5)nc4c32)CC1 [Compound 196, 4-{8-[6-(dimethylamino)pyridin-3-yl]-3-methyl-2-oxo-2,3-dihydro-1H-imidazo[4,5-c][1,5]naphthyridin-1-yl}-N-methylpiperidine-1-carboxamide]",0.0243,0.76,3.01
"CN(C)c1ccc(-c2ccc3ncc4c(c3n2)n(C2CCN(C(N)=O)CC2)c(=O)n4C)cn1 [Compound 197, 4-{8-[6-(dimethylamino)pyridin-3-yl]-3-methyl-2-oxo-2,3-dihydro-1H-imidazo[4,5-c][1,5]naphthyridin-1-yl}piperidine-1-carboxamide]",0.0358,1.05,0.444
"CN(C)c1ccc(-c2ccc3ncc4c(c3n2)n(C2CCN(CCO)CC2)c(=O)n4C)cn1 [Compound 198, 8-[6-(dimethylamino)pyridin-3-yl]-1-[1-(2-hydroxyethyl)piperidin-4-yl]-3-methyl-1,3-dihydro-2H-imidazo[4,5-c][1,5]naphthyridin-2-one]",0.0325,3.13,3.52
"Cn1c(=O)n(C2CCOCC2)c2c3nc(-c4cn[nH]c4)ccc3ncc21 [Compound 199, 3-methyl-8-(1H-pyrazol-4-yl)-1-(tetrahydro-2H-pyran-4-yl)-1,3-dihydro-2H-imidazo[4,5-c][1,5]naphthyridin-2-one]",0.0183,11.3,1.03
"Cc1ccc(-c2ccc3ncc4c(c3n2)n(C2CCOCC2)c(=O)n4C)cn1 [Compound 200, 3-methyl-8-(6-methylpyridin-3-yl)-1-(tetrahydro-2H-pyran-4-yl)-1,3-dihydro-2H-imidazo[4,5-c][1,5]naphthyridin-2-one]",0.0273,1.11,1.72
"COc1ncc(-c2ccc3ncc4c(c3n2)n(C2CCOCC2)c(=O)n4C)cn1 [Compound 201, 8-(2-methoxypyrimidin-5-yl)-3-methyl-1-(tetrahydro-2H-pyran-4-yl)-1,3-dihydro-2H-imidazo[4,5-c][1,5]naphthyridin-2-one]",0.0989,8.96,6.42
"Cn1cc(-c2ccc3ncc4c(c3n2)n(C2CCOCC2)c(=O)n4C)cn1 [Compound 203, 3-methyl-8-(1-methyl-1H-pyrazol-4-yl)-1-(tetrahydro-2H-pyran-4-yl)-1,3-dihydro-2H-imidazo[4,5-c][1,5]naphthyridin-2-one]",0.0718,5.17,72.3
"CN(C)c1ccc(-c2ccc3ncc4c(c3n2)n(C2CCOCC2)c(=O)n4C)cn1 [Compound 204, 8-[6-(dimethylamino)pyridin-3-yl]-3-methyl-1-(tetrahydro-2H-pyran-4-yl)-1,3-dihydro-2H-imidazo[4,5-c][1,5]naphthyridin-2-one]",0.029,0.298,12.7
"CN(C)c1ccc(-c2ccc3ncc4c(c3n2)n(C2CCN(C(=O)C(C)(C)C)CC2)c(=O)n4C)cn1 [Compound 205, 8-[6-(dimethylamino)pyridin-3-yl]-1-[1-(2,2-dimethylpropanoyl)piperidin-4-yl]-3-methyl-1,3-dihydro-2H-imidazo[4,5-c][1,5]naphthyridin-2-one]",0.0214,0.281,4.38
"COCCN1CCC(n2c(=O)n(C)c3cnc4ccc(-c5ccc(N(C)C)nc5)nc4c32)CC1 [Compound 206, 8-[6-(dimethylamino)pyridin-3-yl]-1-[1-(2-methoxyethyl)piperidin-4-yl]-3-methyl-1,3-dihydro-2H-imidazo[4,5-c][1,5]naphthyridin-2-one]",0.0318,0.802,8.09
"Cn1c(=O)n(C2CCOCC2)c2c3nc(-c4cnn(CCO)c4)ccc3ncc21 [Compound 208, 8-[1-(2-hydroxyethyl)-1H-pyrazol-4-yl]-3-methyl-1-(tetrahydro-2H-pyran-4-yl)-1,3-dihydro-2H-imidazo[4,5-c][1,5]naphthyridin-2-one]",0.579,24.4,44.2
"Cn1cc(-c2ccc3ncc4c(c3n2)n(C2CCN(CC(N)=O)CC2)c(=O)n4C)cn1 [Compound 211, 2-{4-[3-methyl-8-(1-methyl-1H-pyrazol-4-yl)-2-oxo-2,3-dihydro-1H-imidazo[4,5-c][1,5]naphthyridin-1-yl]piperidin-1-yl}acetamide]",0.232,4.63,7.55
"CC(=O)N1CCC(n2c(=O)n(C)c3cnc4ccc(-c5cnn(C)c5)nc4c32)CC1 [Compound 213, 1-(1-acetylpiperidin-4-yl)-3-methyl-8-(1-methyl-1H-pyrazol-4-yl)-1,3-dihydro-2H-imidazo[4,5-c][1,5]naphthyridin-2-one]",0.133,4.09,7.81
"C[C@@H](O)C(=O)N1CCC(n2c(=O)n(C)c3cnc4ccc(-c5ccc(N(C)C)nc5)nc4c32)CC1 [Compound 214, 8-[6-(dimethylamino)pyridin-3-yl]-1-{1-[(2R)-2-hydroxypropanoyl]piperidin-4-yl}-3-methyl-1,3-dihydro-2H-imidazo[4,5-c][1,5]naphthyridin-2-one]",0.00553,0.397,1.74
"Cn1cc(-c2ccc3ncc4c(c3n2)n(C2CCN(C(=O)C(C)(C)O)CC2)c(=O)n4C)cn1 [Compound 215, 1-[1-(2-hydroxy-2-methylpropanoyl)piperidin-4-yl]-3-methyl-8-(1-methyl-1H-pyrazol-4-yl)-1,3-dihydro-2H-imidazo[4,5-c][1,5]naphthyridin-2-one]",0.0304,4.67,22
"CN(C)c1ccc(-c2ccc3ncc4c(c3n2)n(C2CCN(C(=O)CO)CC2)c(=O)n4C)cn1 [Compound 216, 8-[6-(dimethylamino)pyridin-3-yl]-1-(1-glycoloylpiperidin-4-yl)-3-methyl-1,3-dihydro-2H-imidazo[4,5-c][1,5]naphthyridin-2-one]",0.00623,0.505,2.29
"Cn1c(=O)n(C2CCNCC2)c2c3nc(-c4cnn(CCO)c4)ccc3ncc21 [Compound 226, 8-[1-(2-hydroxyethyl)-1H-pyrazol-4-yl]-3-methyl-1-piperidin-4-yl-1,3-dihydro-2H-imidazo[4,5-c][1,5]naphthyridin-2-one]",3.21,52.1,105
"Cn1c(=O)n(C2CCNCC2)c2c3nc(-c4cnc(N)nc4)ccc3ncc21 [Compound 227, 8-(2-aminopyrimidin-5-yl)-3-methyl-1-piperidin-4-yl-1,3-dihydro-2H-imidazo[4,5-c][1,5]naphthyridin-2-one]",0.137,1.61,3.61
"Cn1c(=O)n([C@H]2CC[C@H](O)CC2)c2c3nc(-c4cnc(N)nc4)ccc3ncc21 [Compound 229, 8-(2-aminopyrimidin-5-yl)-1-(trans-4-hydroxycyclohexyl)-3-methyl-1,3-dihydro-2H-imidazo[4,5-c][1,5]naphthyridin-2-one]",0.00336,0.273,0.33
